pKd: −log10 of the molar value.
How the values were obtained:
[1] = biological target: T1, TCR / mCD1d-glycolipid complex (Mus musculus, UniProt P11609); experiment: Surface plasmon resonance: TCR binding to mCD1d-glycolipid complexes
T1 sequence (P11609 19-297): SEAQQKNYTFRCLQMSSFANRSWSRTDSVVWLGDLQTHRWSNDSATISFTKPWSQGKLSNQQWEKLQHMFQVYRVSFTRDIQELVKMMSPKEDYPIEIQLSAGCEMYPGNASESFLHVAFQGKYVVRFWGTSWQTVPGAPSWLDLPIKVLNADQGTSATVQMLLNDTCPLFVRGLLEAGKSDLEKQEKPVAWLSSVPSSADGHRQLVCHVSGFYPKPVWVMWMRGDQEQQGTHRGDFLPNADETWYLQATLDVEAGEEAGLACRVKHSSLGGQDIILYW
T1 sequence (P01887 21-119 partner): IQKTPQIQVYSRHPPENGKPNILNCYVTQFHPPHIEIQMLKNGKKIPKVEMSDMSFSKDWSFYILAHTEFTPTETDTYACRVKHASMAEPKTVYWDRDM
Experimental: SPR studies were conducted using a Biacore 3000 (Biacore). Glycolipids were dissolved at 1 mg/ml in DMSO and before loading were diluted to 0.25 mg/ml with vehicle solution (50 mM Tris-HCl pH 7.0, 4.8 mg/ml sucrose, 0.5 mg/ml deoxycholate and 0.022% Tween-20), heated for 20 minutes at 80° C. After cooling 1 μg of each lipid was incubated with 10 μg enzymatically biotinylated mCD1d overnight at room temperature. In one embodiment, 400-600 response units (RU) of mCD1d-glycolipid complexes were immobilized onto a CA capture chip (Biacore). A reference surface was generated in another flow channel with unloaded mCD1d immobilized at RU of 500. During the association phase, a series of increasing concentrations of TCR (in 10 mM HEPES, 150 mM NaCl, 3.0 mM EDTA, pH 7.4) in duplicate were injected for 80 seconds and the dissociation phase (running buffer only) was monitored over 45 minutes. Experiments were carried out at 25° C. with a flow rate of 30 μl/min and performed at least two to three times, each time with a different batch of TCR preparation. Kinetic parameters were calculated after subtracting the response to mCD1d molecules in the reference channel, using a simple Langmuir 1:1 model in the BIA evaluation software version 4.1. One representative sensorgram for each lipid is shown. […]

CD1d = biological target: T2, CD1d (Mus musculus, UniProt P11609); experiment: Buried surface area between glycolipid and CD1d in crystal structures; conditions: mCD1d-glycolipid-mTCR crystal structures
T2 construct: made in house
T2 sequence (P11609 19-297 limits assumed): T1 sequence (P11609 19-297)
Experimental: First, the ternary mCD1d-lipid-mTCR complexes using the glycolipids 4ClPhC-α-GalCer (3a) and PyrC-α-GalCer (3c) were prepared as described previously for NU-α-GalCer, and purified by size exclusion chromatography (SEC) using Superdex S200 10/300 GL (GE Healthcare). Both mCD1d-4ClPhC-α-GalCer-mTCR and mCD1d-PyrC-α-GalCer-mTCR complexes were concentrated to 3.5 mg/ml in SEC buffer (50 mM Hepes, pH 7.5, 150 mM NaCl). Crystals were grown at 22.3° C. by sitting drop vapor diffusion while by mixing 0.5 μl mCD1d-4ClPhC-α-GalCer-mTCR and 0.5 μl precipitate (20% PEG 4000, 0.2 M sodium thiocyanate) or by mixing 1 μl mCD1d-PyrC-α-GalCer-mTCR and […] precipitate (20% PEG 4000, 0.2 M di-ammonium hydrogen citrate), respectively.
Crystals were flash-cooled at 100° K in a mother liquor containing 30% glycerol. […]
The asymmetric unit contains one mCD1d-glycolipid-TCR molecule with estimated solvent content of 57.3% based on a Matthews' coefficient (Vm) of 2.88 A^3/Da for 4ClPhC-α-GalCer and 56.9% (VM) of 2.86 A^3/Da for PyrC-α-GalCer. Crystal structures were determined by molecular replacement using MOLREP as part of the CCP4 suite. […]

solid tumours = conditions: Phase I study; cited from earlier work

CCCCCCCCCCCCCCCCCCCCCCCCCC(=O)N[C@@H](CO[C@H]1O[C@H](CO)[C@H](O)[C@H](O)[C@H]1O)[C@H](O)[C@H](O)CCCCCCCCCCCCCC [α-GalCer, α-galactosyl ceramide]
pKd [1]: 7.96
buried surface area between glycolipid and CD1d (CD1d): 1,027 Å^2
treatment of solid tumours (solid tumours): ineffective

From patent US9321796B2, “Galactopyranosyl derivatives useful as medicaments” (Universiteit Gent, priority 2012, dated 2016)
